Reference: patent publication US8853236B2, “Formulations containing clopidogrel and sulfoalkyl ether cyclodextrin and methods of use” (Cydex Pharmaceuticals, Inc., priority 2007, dated 2014)

Columns and labels:
[1] = in vivo; cited from earlier work
animals = conditions: in animals; cited from earlier work
[2] = Competitive binding study of clopidogrel bisulfate and aspirin with SAE-CD (Example 22); type: physicochemical; conditions: pH ~5.5
Description: In this example, excess clopidogrel bisulfate was added to solutions containing fixed amounts of SAE-CD and varying amounts of aspirin. FIG. 7 depicts the results of a competitive binding study. […] Thus, in a formulation containing both clopidogrel and aspirin, the formulation may or may not require additional SAE-CD to solubilize both ingredients than would be required to solubilize either component individually.
The competitive binding study was conducted using clopidogrel bisulphate and aspirin (ASA, acetyl salicylic acid). The work was conducted on an auto-titrator such that the pH was maintained at ˜5.5 using sodium hydroxide. The required amount of SBE-β-CD and aspirin was first solubilized in 0.2 μm Millipore filtered water then transferred to the auto-titrator.
After equilibration, the solutions were sampled and analyzed for clopidogrel content.

[3] = system: ADP-induced platelet aggregation; conditions: i.v., 0.1-300 mg clopidogrel
Description: The response was determined as percent of platelet aggregation inhibition following exposure of the subjects' plasma ex-vivo to ADP (5 μM).
Blood samples for determination of ADP-induced platelet aggregation inhibition using the impedance method (see Dyszkiewicz-Korpanty et al. above) were obtained from arm #2 (the arm not used for dosing) at baseline (check-in, Day −1), 15 and 30 minutes, and 2, 5, and 24 hours after dose initiation.
Maximum % platelet inhibition and area under the % platelet inhibition curve was calculated for each individual and summarized by treatment group

phosphodiesterase = conditions: cited from earlier work
platelet aggregation = conditions: subjects who were non-responders to clopidogrel (10-300 mg) perorally
[4] = pH 5.6, 37° C., 0.1M phosphate buffer; cited from earlier work

COC(=O)[C@@H](c1ccccc1Cl)N1CCc2sccc2C1 (single isomer, unassigned) [(R)-enantiomer of clopidogrel]
antithrombotic activity [1]: devoid of antithrombotic activity | convulsions (animals): can provoke convulsions

CC(=O)Oc1ccccc1C(=O)O [aspirin, acetyl salicylic acid]
binding with SAE-CD in a solution containing SAE-CD and clopidogrel salt [2]: binds competitively

COC(=O)[C@H](c1ccccc1Cl)N1CCc2sccc2C1.O=S(=O)(O)O [clopidogrel bisulfate, methyl (+)-(S)-α-(2-chlorophenyl)-6,7-dihydrothieno[3,2-c]pyridine-5(4H)-acetate sulfate (1:1)]
time to onset of the therapeutic effect (platelet aggregation inhibition, 5 μM ADP ex vivo) [3]: ≤ 15 min | inhibition of phosphodiesterase activity (phosphodiesterase): does not inhibit | subjects deemed responders after parenteral administration (platelet aggregation): 9-25% | t90 toward hydrolysis [4]: about 52.7 days
